Laboratory results from US5550212A, “Analogues of hGH-RH(1-29)NH2 having antagonistic activity” (The Administrators of the Tulane Educational Fund, priority 1993, dated 1996).
Each block holds one compound with its values, some of them ahead of it. Non-standard residues stand in square brackets, D forms with d. Residues, ends and D or L forms follow the SMILES beside them. No end group written: not given here. *: point of attachment. Phe(4-Cl) = N[C@@H](Cc1ccc(Cl)cc1)C(=O)O; Agmatine = N=C(N)NCCCCN*; Isobutyryl = CC(C)C(=O)*; Nle = CCCC[C@H](N)C(=O)O; Abu = CC[C@H](N)C(=O)O; Aib = CC(C)(N)C(=O)O; X1 = O=C(CCBr)*

Assays:
[1] = target: T1, rat pituitary GH-RH receptors (Rattus norvegicus, UniProt Q02644); test: GH-RH binding assay, competitive binding on rat anterior pituitary membrane homogenates; details: for Ki: competition with labelled [His1,Nle27]hGH-RH(1-32)NH2
T1 construct: from tissue; host or cells: rat anterior pituitary (male Sprague-Dawley), crude membranes
T1 sequence (Q02644 23-464): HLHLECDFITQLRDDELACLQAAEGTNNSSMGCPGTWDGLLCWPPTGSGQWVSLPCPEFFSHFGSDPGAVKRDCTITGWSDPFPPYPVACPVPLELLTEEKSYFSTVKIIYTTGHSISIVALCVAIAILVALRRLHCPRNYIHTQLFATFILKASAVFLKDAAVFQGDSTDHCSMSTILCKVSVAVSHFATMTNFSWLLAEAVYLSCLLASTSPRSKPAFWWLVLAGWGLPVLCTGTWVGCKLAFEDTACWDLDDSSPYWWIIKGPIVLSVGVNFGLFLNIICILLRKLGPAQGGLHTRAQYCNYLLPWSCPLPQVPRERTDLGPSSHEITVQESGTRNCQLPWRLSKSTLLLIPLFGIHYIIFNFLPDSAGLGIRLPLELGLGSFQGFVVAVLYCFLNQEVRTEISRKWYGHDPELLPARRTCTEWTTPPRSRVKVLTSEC
Method: GH-RH Binding Assay. A sensitive radioreceptor binding assay was developed to determine the binding characteristics of the antagonists of GH-RH (G. Halmos, A. V. Schally et al., Receptor 3, 87-97, 1993), hereby incorporated by reference. The assay is based on binding of labelled [His^1,Nle^27 ]hGH-RH(1-32)NH2 to rat anterior pituitary membrane homogenates. Iodinated derivatives of [His^1,Nle^27 ]hGH-RH(1-32)NH2 are prepared by the chloramine-T method (F. C. Greenwood et al., Biochemistry 89:114-123, 1963), hereby incorporated by reference. Pituitaries from male Sprague-Dawley rats (250-300 g) are used to prepare crude membranes. For saturation binding analyses, membrane homogenates are incubated with at least 6 concentrations of [His^1,^25 I-Tyr^10,Nle^27 ]hGH-RH(1-32)NH2, ranging from 0.005 to 0.35 nM in the presence or absence of excess unlabelled peptide (1 μM). The pellet is counted for radioactivity in a y-counter. The affinities of the antagonist peptides tested to rat pituitary GH-RH receptors are determined in competitive binding experiments. The final binding affinities are estimated by Ki (dissociation constant of the inhibitor-receptor complex) and are determined by the Ligand PC computer program of Munson and Rodbard as modified by McPherson. Relative affinities compared to [Ac-Tyr^1,D-Arg^2 ]hGH-RH(1-29)NH2, the Standard antagonist, are calculated as the ratio of Ki of the tested GH-RH antagonist to the Ki of the Standard antagonist.

[2] = system: hGH-RH(1-29)NH2 induced GH release; test: Superfused rat pituitary system: inhibition of hGH-RH(1-29)NH2 induced GH release; assay type: cell-based; details: for Inhibition of GH release (%) 0 min: 0 min response; for Inhibition of GH release (%) 30 min: 30 min response; for Inhibition of GH release (%) 60 min: 60 min response
Method: Superfused Rat Pituitary System. The analogues were tested in vitro in a test described earlier (S. Vigh and A. V. Schally, Peptides 5:241-[…], 1984) with modification ([…] and […]. 90:2146-2149, 1993). Briefly, the cells are preincubated with peptides for 9 minutes (3 mL) at various concentrations. Immediately after the incubation, 1 nM hGH-RH(1-29)NH2 is administered for 3 minutes (1 mL) [0 minute response]. To check the duration of the antagonistic effect of the analogue, 1 nM hGH-RH(1-29)NH2 is applied 30, 60, 90, and 120 minutes later for 3 minutes [30, 60, 90, 120 min responses]. Net integral values of the GH responses are evaluated. GH responses are compared to and expressed as percent of the original GH response induced by 1 nM GH-RH(1-29)NH2. The effect of the new antagonists are compared to that of [Ac-[…] ]hGH-RH(1-29)NH2, the "Standard antagonist". Growth Hormone Radio-immunoassay. Rat GH levels in aliquots of undiluted and diluted superfusion samples were measured by double-antibody radioimmunoassay using materials supplied by the National Hormone and Pituitary Program, Baltimore, Md. The results of RIA were analyzed with a computer program developed in our institute (V. Csernus and A. V. Schally, Harwood Academic (Greenstein, B. C. ed., London, pp. 71-109, 1991), hereby incorporated by reference. Inter-assay variation was less than 15% and intra-assay variation was less than 10%.

GH release = details: cited from earlier work; for bioactivity (in words): compared with hGH-RH(1-29)NH2

Ki [1]: 0.78 ± 0.06 nM
Compound: CCCC[C@H](NC(=O)[C@@H](NC(=O)[C@H](CC(=O)O)NC(=O)[C@H](CCC(N)=O)NC(=O)[C@H](CC(C)C)NC(=O)[C@H](CC(C)C)NC(=O)[C@H](CCCCN)NC(=O)[C@H](CCCNC(=N)N)NC(=O)[C@H](C)NC(=O)[C@H](CO)NC(=O)[C@H](CC(C)C)NC(=O)[C@H](CCC(N)=O)NC(=O)[C@H](CC)NC(=O)[C@H](CC(C)C)NC(=O)[C@@H](NC(=O)[C@H](CCCCN)NC(=O)[C@H](CCCNC(=N)N)NC(=O)[C@H](Cc1ccc(O)cc1)NC(=O)[C@H](CO)NC(=O)C(C)(C)NC(=O)[C@@H](NC(=O)[C@H](Cc1ccccc1)NC(=O)[C@@H](NC(=O)[C@H](C)NC(=O)[C@H](CC(=O)O)NC(=O)[C@@H](CCCNC(=N)N)NC(=O)[C@H](Cc1ccc(O)cc1)NC(=O)C(C)C)[C@@H](C)CC)[C@@H](C)O)C(C)C)[C@@H](C)CC)C(=O)N[C@@H](CO)C(=O)N[C@@H](CCCNC(=N)N)C(N)=O [Peptide 13, [Ibu^0,D-Arg^2,Aib^8,Abu^15,Nle^27]hGH-RH(1-29)NH2] (Isobutyryl-Y[dR]DAIFT[Aib]SYRKVL[Abu]QLSARKLLQDI[Nle]SR-NH2)

Ki [1]: 0.73 ± 0.05 nM
Compound: CCCC[C@H](NC(=O)[C@@H](NC(=O)[C@H](CC(=O)O)NC(=O)[C@H](CCC(N)=O)NC(=O)[C@H](CC(C)C)NC(=O)[C@H](CC(C)C)NC(=O)[C@H](CCCCN)NC(=O)[C@H](CCCNC(=N)N)NC(=O)[C@H](C)NC(=O)[C@H](CO)NC(=O)[C@H](CC(C)C)NC(=O)[C@H](CCC(N)=O)NC(=O)[C@H](CC)NC(=O)[C@H](CC(C)C)NC(=O)[C@@H](NC(=O)[C@H](C)NC(=O)[C@H](CCCNC(=N)N)NC(=O)[C@H](Cc1ccc(O)cc1)NC(=O)[C@H](CO)NC(=O)[C@H](CC(N)=O)NC(=O)[C@@H](NC(=O)[C@H](Cc1ccc(Cl)cc1)NC(=O)[C@@H](NC(=O)[C@H](C)NC(=O)[C@H](CC(=O)O)NC(=O)[C@@H](CCCNC(=N)N)NC(=O)[C@H](Cc1ccc(O)cc1)NC(=O)C(C)C)[C@@H](C)CC)[C@@H](C)O)C(C)C)[C@@H](C)CC)C(=O)N[C@@H](CO)C(=O)N[C@@H](CCCNC(=N)N)C(N)=O [Peptide 15, [Ibu^0,D-Arg^2,Phe(pCl)^6,Ala^12,Abu^15,Nle^27]hGH-RH(1-29)NH2] (Isobutyryl-Y[dR]DAI[Phe(4-Cl)]TNSYRAVL[Abu]QLSARKLLQDI[Nle]SR-NH2)

Ki [1]: 0.12 ± 0.04 nM
Compound: CCCC[C@H](NC(=O)[C@@H](NC(=O)[C@H](CC(=O)O)NC(=O)[C@H](CCC(N)=O)NC(=O)[C@H](CC(C)C)NC(=O)[C@H](CC(C)C)NC(=O)[C@H](CCCCN)NC(=O)[C@H](CCCNC(=N)N)NC(=O)[C@H](C)NC(=O)[C@H](CO)NC(=O)[C@H](CC(C)C)NC(=O)[C@H](CCC(N)=O)NC(=O)[C@H](CC)NC(=O)[C@H](CC(C)C)NC(=O)[C@@H](NC(=O)[C@H](CCCCN)NC(=O)[C@H](CCCNC(=N)N)NC(=O)[C@H](Cc1ccc(O)cc1)NC(=O)[C@H](CO)NC(=O)[C@H](CC(N)=O)NC(=O)[C@@H](NC(=O)[C@H](Cc1ccc(Cl)cc1)NC(=O)[C@@H](NC(=O)[C@H](C)NC(=O)[C@H](CC(=O)O)NC(=O)[C@@H](CCCNC(=N)N)NC(=O)[C@H](Cc1ccc(O)cc1)NC(=O)C(C)C)[C@@H](C)CC)[C@@H](C)O)C(C)C)[C@@H](C)CC)C(=O)N[C@@H](CO)C(=O)NCCCCNC(=N)N [Peptide 19, Ibu^0,D-Arg^2, Phe(pCl)^6,Abu^15,Nle^27]hGH-RH(1-28)Agm] (Isobutyryl-Y[dR]DAI[Phe(4-Cl)]TNSYRKVL[Abu]QLSARKLLQDI[Nle]S-Agmatine)

Compound: CCCC[C@H](NC(=O)[C@@H](NC(=O)[C@H](CC(=O)O)NC(=O)[C@H](CCC(N)=O)NC(=O)[C@H](CC(C)C)NC(=O)[C@H](CC(C)C)NC(=O)[C@H](CCCCN)NC(=O)[C@H](CCCNC(=N)N)NC(=O)[C@H](C)NC(=O)[C@H](CO)NC(=O)[C@H](CC(C)C)NC(=O)[C@H](CCC(N)=O)NC(=O)[C@H](CC)NC(=O)[C@H](CC(C)C)NC(=O)[C@@H](NC(=O)[C@H](CCCCN)NC(=O)[C@H](CCCNC(=N)N)NC(=O)[C@H](Cc1ccc(O)cc1)NC(=O)[C@H](CO)NC(=O)[C@H](CC(N)=O)NC(=O)[C@@H](NC(=O)[C@H](Cc1ccc(Cl)cc1)NC(=O)[C@@H](NC(=O)[C@H](C)NC(=O)[C@H](CC(=O)O)NC(=O)[C@@H](CCCNC(=N)N)NC(=O)[C@H](Cc1ccc(O)cc1)NC(=O)CCBr)[C@@H](C)CC)[C@@H](C)O)C(C)C)[C@@H](C)CC)C(=O)N[C@@H](CO)C(=O)NCCCCNC(=N)N [Peptide 20] (X1-Y[dR]DAI[Phe(4-Cl)]TNSYRKVL[Abu]QLSARKLLQDI[Nle]S-Agmatine; N-terminus assumed)
R.A. (relative affinity compared to the Standard antagonist) ([1]; ratio of Ki values, Standard = 1): 3.27 | Inhibition of GH release (%) 0 min ([2]; dose 10 nM): 56.2% | Inhibition of GH release (%) 30 min ([2]; dose 10 nM): 35.2% | Inhibition of GH release (%) 60 min ([2]; dose 10 nM): 51.8% | Inhibition of GH release (%) 0 min ([2]; dose 30 nM): 58% | Inhibition of GH release (%) 30 min ([2]; dose 30 nM): 19.3% | Inhibition of GH release (%) 60 min ([2]; dose 30 nM): 35.3% | Inhibition of GH release (%) 0 min ([2]; dose 100 nM): 86.4% | Inhibition of GH release (%) 30 min ([2]; dose 100 nM): 75% | Inhibition of GH release (%) 60 min ([2]; dose 100 nM): 62.8%

Compound: GH-RH(1-27)NH2 (YADAIFTNSYRKVLGQLSARKLLQDIM-NH2; UniProt P01286 32-58, looked up, fragment) [shorter GH-RH analogue]
bioactivity (in words) (GH release): substantially lower bioactivity

Compound: GH-RH(1-28)NH2 (YADAIFTNSYRKVLGQLSARKLLQDIMS-NH2; UniProt P01286 32-59, looked up, fragment) [shorter GH-RH analogue]
bioactivity (in words) (GH release): substantially lower bioactivity

Compound: [Ac-Tyr^1 ]GH-RH (Ac-YADAIFTNSYRKVLGQLSARKLLQDIMSRQQGESNQERGARARL; ends and bridges not checked; UniProt P01286 32-75, looked up)
GH releasing activity relative to GH-RH (GH release): 2-3%

Compound: [D-Tyr^1 ]GH-RH
GH releasing activity relative to GH-RH (GH release): 2-3%

Compound: hGH-RH(2-44) (ADAIFTNSYRKVLGQLSARKLLQDIMSRQQGESNQERGARARL; ends and bridges not checked; UniProt P01286 33-75, looked up, fragment) [GH-RH without its N-terminus residue]
GH releasing activity relative to GH-RH (GH release): 0.1%
